For data set [1] the following is noted: cited from earlier work.
For data set [2] the following is noted: rats, cited from earlier work.
The conditions of data set [3]: across species tested; cited from earlier work.
In data set [4] the test system is rat model of formalin (FML)-induced chronic pain. Description: Von Frey assay (VFA), mechanical allodynia, formalin-induced rat pain model. The class given is in vivo, Sprague Dawley rats. An excerpt: This example describes the effects of intravenous administration of psychedelics on pain perception and diseases associated with pain, such as nociplastic pain, in an animal model of pain. A rat model of formalin (FML)-induced chronic pain was used to investigate the effect of psilocybin administration on mechanical allodynia and thermal hyperalgesia.
Chronic pain in rats was induced by injection of formalin into the hind paw. The rats subsequently were intravenously administered psilocybin, and assessed for changes in pain perception over an extended period of time. […] The pain perception was measured in the contralateral and ipsilateral paws to assess the potential benefit of psychedelics (e.g., psilocybin) in nociplastic pain disorders. […]
Adult male Sprague Dawley rats (300-350 g) were implanted with a catheter in the jugular vein for delivery of 10 mg/kg psilocybin or 0.9% saline. Mechanical allodynia was assessed using von Frey assay (VFA) and was expressed as the threshold in grams (g). Thermal hyperalgesia was measured as paw withdrawal latency in seconds (s) using the hot plate assay (HPA) (52.5° C.). After post-surgical recovery (7-10 days), baseline responses to mechanical and thermal stimuli were measured. […] Two hours after the formalin injection, paw withdrawal thresholds in response to mechanical and thermal stimuli were measured. […]
Two types of pain perception were measured. […]

The conditions of data set [5]: cited from earlier work. This is another data set of the same source.
Where [6] appears, read: single oral administration of psilocybin at 0.225 mg/kg (Hasler et al.).

The values that follow come from US20260108545A1, “Methods of treating fibromyalgia with compositions comprising psilocybin” (Tryp Therapeutics Inc., priority 2022, published 2026).

`CN(C)CCc1c[nH]c2cccc(O)c12` [psilocin]: the “time until psilocin is detectable in plasma” value in data set [1] (after administration of the parent compound (oral psilocybin)) is at most 20 min. For the same molecule, in data set [1] (estimate (Hasler et al.)), the “absolute bioavailability of psilocin after oral administration of psilocybin” value is given as 52.7+/−20%. Further, the “half-life of psilocin in blood” value in data set [1] (in vivo) was 2 to 3 h. In addition, in data set [1] (setting [6]), the “average peak concentration of psilocin in plasma” value is 8.2+/−2.8 ng psilocin/ml plasma and the “time of peak plasma levels of psilocin” value was 105 ± 37 min. The “share of total psilocin absorbed from the digestive tract” value in data set [2] (oral psilocybin (Kalberer et al.)) is given as “approximately 50%”. Further, the “time to maximum plasma levels” value in data set [2] (post-administration (Chen et al.)) is given as “approximately 90 minutes”. For the same molecule, the “brain regions with the highest levels of psilocin” value in data set [3] was “neocortex, hippocampus, and thalamus”.

Take `CN(C)CCc1c[nH]c2cccc(OP(=O)(O)O)c12` [psilocybin, 3-[2-(dimethylamino)ethyl]-1H-indol-4-yl]dihydrogen phosphate]: in data set [4] (contralateral paw, after a single psilocybin administration), the “duration of statistically significant increase in withdrawal threshold” value worked out at 3 weeks. The “duration of decreased tactile pain” value in data set [4] (rat model of pain) was “up to 28 days”. In addition, the “bioavailability of oral psilocybin” value in data set [1] (oral) was around 50%. Further, in data set [5] (at the doses examined in clinical studies / healthy individuals), the tolerability result was “well tolerated”. The “rates of prolonged psychiatric symptoms of any kind following psilocybin exposure” value in data set [5] (healthy study subjects, estimated) is on record as 0.08-0.09%. Moreover, the “drug-related serious adverse events (SAEs)” value in data set [5] (oral psilocybin) is “No drug-related serious adverse events (SAEs) have been reported”.
